Results on three compounds are retold here after the supplement of paper PMC11061612.

Assay in all cases: combination Emax (second highest fraction inhibited in the dose matrix, 72 h); higher = more inhibition; extreme values may be limits of the assay
The subject of assay [1] is 23132-87 (Gastric Carcinoma). An outline of the steps:
(§1)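 Bliss excess equals the observed combination effect minus the expected value EA + EB − EA·EB, where EA and EB are the effects of each agent alone. Combination Emax is the second-highest inhibition within the matrix. Inhibition was scaled from CellTiter-Glo 2.0 luminescence, with 0 set by vehicle wells and 1 by blank wells, after 72 hours of two-drug dosing of cells plated in 1536-well plates.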

Assay [2] relates to A2058 (Melanoma). An outline of the steps: as §1
Assay [3] relates to CAL-62 (Thyroid Gland Carcinoma). An outline of the steps: as §1
For assay [4], the system named is COLO-680N (Esophageal Squamous Cell Carcinoma). An outline of the steps: as §1
In assay [5] the test system is FADU (Head and Neck Carcinoma). An outline of the steps:
as §1

For assay [6], the system named is GB-1 (Glioblastoma). Put shortly:
as §1

For assay [7], the system named is HSC-39 (Gastric Carcinoma). An outline of the steps: as §1
Assay [8] deals with KE-37 (T-Lymphoblastic Leukemia). Put shortly: as §1
Assay [9] deals with L-1236 (Hodgkin's Lymphoma). An outline of the steps:
as §1

In assay [10] the test system is LN-229 (Glioblastoma). Put shortly:
as §1

Assay [11] relates to MFE-280 (Endometrial Carcinoma). An outline of the steps: as §1
Assay [12] relates to NCI-H23 (Lung Adenocarcinoma). An outline of the steps:
as §1

Assay [13] deals with NCI-H2342 (Lung Adenocarcinoma). Put shortly:
as §1

In assay [14] the test system is PC-3_[JPC-3] (Lung Adenocarcinoma). Put shortly:
as §1

Assay [15] has as its system REH (B-Lymphoblastic Leukemia). An outline of the steps:
as §1

Assay [16] relates to RERF-GC-1B (Gastric Carcinoma). Put shortly:
as §1

The subject of assay [17] is SF268 (Low Grade Glioma). An outline of the steps:
as §1

The test system of assay [18] is SU-DHL-10 (B-Cell Non-Hodgkin's Lymphoma). An outline of the steps:
as §1

The test system of assay [19] is TE-8 (Esophageal Squamous Cell Carcinoma). An outline of the steps: as §1
In assay [20] the test system is WM278 (Melanoma). Put shortly: as §1

In the case of `Cc1cc2ncnn2cc1Nc1ncc2c(n1)n(C1CCOCC1)c(=O)n2C` [AZD7648] + CCN(CCO)CCCOc1ccc2c(Nc3cc(CC(=O)Nc4cccc(F)c4)[nH]n3)ncnc2c1 [AZD2811] (first compound max 10 µM, 7x7, partner max 1 µM), the “combination Emax” value in [1] was found to be 0; in [2], 0.247; in assay [3], 0.368; in [4] it was 0.236; in [5], 0.263; in [6], 0.166. Besides, the “combination Emax” value is 0.939 in [7]; 1 in assay [8]; 0.384 in [9]; 0.199 in assay [10]; 0.377 in [11]; 0.228 in assay [12]. Moreover, the “combination Emax” value in [13] was 0.324; in assay [14], 0.319; in assay [15] it was 0.51; in assay [16], 0.281; in assay [17] it was 0.19; in assay [18], 0.899. The entries for the “combination Emax” value in assay [19] and in assay [20] were 0.354 and 0.157, respectively.

Take `Cc1cc2ncnn2cc1Nc1ncc2c(n1)n(C1CCOCC1)c(=O)n2C` [AZD7648] + CN(C)CCCOc1ccc(-c2ccc3ncc4c(c3c2)n(C2CCOCC2)c(=O)n4C)cn1 [AZD0156] (first compound max 10 µM, 7x7, partner max 1 µM): the “combination Emax” value in [1] worked out at 0.0669; in [2], 0.182; in assay [3], 0.321; in assay [4], 0.188; in assay [5], 0.111; in assay [6] it was 0.19. The “combination Emax” value was found to be 0.215 in assay [7]; 0.659 in assay [8]; 0.306 in assay [9]; 0.146 in assay [10]; 0.359 in assay [11]; 0.103 in assay [12]. Besides, the “combination Emax” value in assay [13] was determined as 0.249; in [14] it was 0.31; in assay [15], 0.258; in [16], 0.29; in assay [17], 0.187; in assay [18], 0.302. Moreover, the “combination Emax” value is 0.325 in [19] and 0.188 in assay [20].

`Cc1cc2ncnn2cc1Nc1ncc2c(n1)n(C1CCOCC1)c(=O)n2C` [AZD7648] + C[C@@H]1COCCN1C2=NC(=NC(=C2)C3(CC3)[S@](=N)(=O)C)C4=C5C=CNC5=NC=C4 [AZD6738] (first compound max 10 µM, 7x7, partner max 10 µM): the “combination Emax” value in assay [1] was 0.841; in assay [2] it was 0.271; in assay [3], 0.724; in assay [4] it was 0.265; in assay [5], 0.695; in assay [6], 0.544. In addition, the “combination Emax” value in assay [7] was 1; in [8], 1; in [9] it was 0.689; in assay [10], 0.525; in [11], 0.337; in assay [12], 0.603. For the same compound, the “combination Emax” value was determined as 0.24 in assay [13]; 0.426 in [14]; 0.771 in assay [15]; 0.457 in assay [16]; 0.303 in [17]; 0.878 in [18]. Moreover, the figures for the “combination Emax” value in [19] and in assay [20] were 0.75 and 0.33, respectively.
